Our source for the IC50 values is patent US11759462B2, “Spirocyclic compounds as tryptophan hydroxylase inhibitors” (priority 2013, dated 2023).

Where two headings read alike, the source gives them in different places.

This assay has as its target T1, Recombinant human TPH1 (MBP tagged) (Homo sapiens, UniProt P17752).
T1 construct: cloning full length human TPH1 cDNA in to a bacterial pMAL-c5E expression vector; made in house; host or cells: E. coli BL21 (DE3)
T1 sequence (P17752 1-444): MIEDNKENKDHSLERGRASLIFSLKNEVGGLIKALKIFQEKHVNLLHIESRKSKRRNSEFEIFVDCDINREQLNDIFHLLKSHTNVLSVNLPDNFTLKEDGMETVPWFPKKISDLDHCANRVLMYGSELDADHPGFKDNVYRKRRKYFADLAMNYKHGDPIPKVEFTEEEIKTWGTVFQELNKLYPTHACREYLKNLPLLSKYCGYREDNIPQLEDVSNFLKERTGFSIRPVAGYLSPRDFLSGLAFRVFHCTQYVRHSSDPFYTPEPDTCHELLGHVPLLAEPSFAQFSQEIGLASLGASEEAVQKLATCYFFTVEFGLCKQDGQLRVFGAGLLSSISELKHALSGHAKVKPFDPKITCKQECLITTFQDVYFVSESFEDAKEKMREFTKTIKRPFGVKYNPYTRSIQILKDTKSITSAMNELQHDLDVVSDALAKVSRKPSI
Description: TPH1 in vitro inhibition assay (kinetic fluorescence). Type of assay: biochemical. A digest of the protocol:
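Final mix: 15 nM MBP-TPH1, 30 μM Trp, 36 μM 6-methyltetrahydropterin, 25 μM ferrous ammonium sulfate, 50 mM MES pH 7.1, 1% DMSO, room temperature.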

The mark [1] stands for this setting: TPH1 Range (TPH1 inhibition IC50).
Where [2] appears, read: read-out: TPH1 Range (TPH1 inhibition IC50).

With `CS(=O)(=O)c1ccc(-c2cc(Cl)ccc2[C@@H](Oc2cc(N3CCC4(CC3)CN[C@H](C(=O)O)C4)nc(N)n2)C(F)(F)F)cc1` [Example 34ad, (S)-8-(2-amino-6-((R)-1-(5-chloro-4′-(methylsulfonyl)-[1,1′-biphenyl]-2-yl)-2,2,2-trifluoroethoxy)pyrimidin-4-yl)-2,8-diazaspiro[4.5]decane-3-carboxylic acid], the IC50 (as a rule, the concentration needed to halve the response being measured) under setting [1] is 300 to 3000 nM.
The same measure, in the same setting: for `Nc1nc(O[C@H](c2ccc(Cl)cc2-c2ccc(S(N)(=O)=O)cc2)C(F)(F)F)cc(N2CCC3(CC2)CN[C@H](C(=O)O)C3)n1` [Example 34ae, (S)-8-(2-amino-6-((R)-1-(5-chloro-4′-sulfamoyl-[1,1′-biphenyl]-2-yl)-2,2,2-trifluoroethoxy)pyrimidin-4-yl)-2,8-diazaspiro[4.5]decane-3-carboxylic acid] the value was 300 to 3000 nM.
Regarding `Nc1nc(O[C@H](c2ccc(Cl)cc2-c2ccc(Cl)c(F)c2)C(F)(F)F)cc(N2CCC3(CC2)CN[C@H](C(=O)O)C3)n1` [Example 34af, (S)-8-(2-amino-6-((R)-1-(4′,5-dichloro-3′-fluoro-[1,1′-biphenyl]-2-yl)-2,2,2-trifluoroethoxy)pyrimidin-4-yl)-2,8-diazaspiro[4.5]decane-3-carboxylic acid], under setting [2], the concentration for half-maximal inhibition (IC50) is below 50 nM.
On the same count and under the same terms, in the case of `CC(C)Oc1cccc(-c2cc(Cl)ccc2[C@@H](Oc2cc(N3CCC4(CC3)CN[C@H](C(=O)O)C4)nc(N)n2)C(F)(F)F)c1` [Example 34ag, (S)-8-(2-amino-6-((R)-1-(5-chloro-3′-isopropoxy-[1,1′-biphenyl]-2-yl)-2,2,2-trifluoroethoxy)pyrimidin-4-yl)-2,8-diazaspiro[4.5]decane-3-carboxylic acid] it was below 50 nM; in that of `CCOc1cccc(-c2cc(Cl)ccc2[C@@H](Oc2cc(N3CCC4(CC3)CN[C@H](C(=O)O)C4)nc(N)n2)C(F)(F)F)c1` [Example 34ah, (S)-8-(2-amino-6-((R)-1-(5-chloro-3′-ethoxy-[1,1′-biphenyl]-2-yl)-2,2,2-trifluoroethoxy)pyrimidin-4-yl)-2,8-diazaspiro[4.5]decane-3-carboxylic acid], below 50 nM.
For `CCOc1ccc(-c2cc(Cl)ccc2[C@@H](Oc2cc(N3CCC4(CC3)CN[C@H](C(=O)O)C4)nc(N)n2)C(F)(F)F)cc1Cl` [Example 34ai, (S)-8-(2-amino-6-((R)-1-(3′,5-dichloro-4′-ethoxy-[1,1′-biphenyl]-2-yl)-2,2,2-trifluoroethoxy)pyrimidin-4-yl)-2,8-diazaspiro[4.5]decane-3-carboxylic acid], under setting [1], the 50% inhibitory concentration (IC50) was in the range of 50 to 300 nM.
Regarding `Cc1ccc(-c2cc(Cl)ccc2[C@@H](Oc2cc(N3CCC4(CC3)CN[C@H](C(=O)O)C4)nc(N)n2)C(F)(F)F)cc1Cl` [Example 34aj, (S)-8-(2-amino-6-((R)-1-(3′,5-dichloro-4′-methyl-[1,1′-biphenyl]-2-yl)-2,2,2-trifluoroethoxy)pyrimidin-4-yl)-2,8-diazaspiro[4.5]decane-3-carboxylic acid], under setting [2], the concentration for half-maximal inhibition (IC50) was in the range of 50 to 300 nM.
The same measure, in the same setting: for `CC(C)Oc1ccc(-c2cc(Cl)ccc2[C@@H](Oc2cc(N3CCC4(CC3)CN[C@H](C(=O)O)C4)nc(N)n2)C(F)(F)F)cc1Cl` [Example 34ak, (S)-8-(2-amino-6-((R)-1-(3′,5-dichloro-4′-isopropoxy-[1,1′-biphenyl]-2-yl)-2,2,2-trifluoroethoxy)pyrimidin-4-yl)-2,8-diazaspiro[4.5]decane-3-carboxylic acid] the value was 50 to 300 nM.
The same measure, in the same setting: for `CC(C)Oc1ccc(-c2cc(Cl)ccc2[C@@H](Oc2cc(N3CCC4(CC3)CN[C@H](C(=O)O)C4)nc(N)n2)C(F)(F)F)cc1F` [Example 34al, (S)-8-(2-amino-6-((R)-1-(5-chloro-3′-fluoro-4′-isopropoxy-[1,1′-biphenyl]-2-yl)-2,2,2-trifluoroethoxy)pyrimidin-4-yl)-2,8-diazaspiro[4.5]decane-3-carboxylic acid] the value was 3000 to 10000 nM; for `Nc1nc(O[C@H](c2ccc(Cl)cc2-c2ccc(Cl)c(C(F)(F)F)c2)C(F)(F)F)cc(N2CCC3(CC2)CN[C@H](C(=O)O)C3)n1` [Example 34am, (S)-8-(2-amino-6-((R)-1-(4′,5-dichloro-3′-(trifluoromethyl)-[1,1′-biphenyl]-2-yl)-2,2,2-trifluoroethoxy)pyrimidin-4-yl)-2,8-diazaspiro[4.5]decane-3-carboxylic acid], 50 to 300 nM.
As for `Nc1nc(O[C@H](c2ccc(Cl)cc2-c2cc(F)cc(Cl)c2)C(F)(F)F)cc(N2CCC3(CC2)CN[C@H](C(=O)O)C3)n1` [Example 34an, (S)-8-(2-amino-6-((R)-1-(3′,5-dichloro-5′-fluoro-[1,1′-biphenyl]-2-yl)-2,2,2-trifluoroethoxy)pyrimidin-4-yl)-2,8-diazaspiro[4.5]decane-3-carboxylic acid], under setting [1], the IC50 is below 50 nM.
Same read-out and setting: in the case of `CC(C)(C)c1cccc(-c2cc(Cl)ccc2[C@@H](Oc2cc(N3CCC4(CC3)CN[C@H](C(=O)O)C4)nc(N)n2)C(F)(F)F)c1` [Example 34ao, (S)-8-(2-amino-6-((R)-1-(3′-(tert-butyl)-5-chloro-[1,1′-biphenyl]-2-yl)-2,2,2-trifluoroethoxy)pyrimidin-4-yl)-2,8-diazaspiro[4.5]decane-3-carboxylic acid] it was below 50 nM.
Take `Nc1nc(O[C@H](c2ccc(Cl)cc2-c2cc(Cl)cc(C(F)(F)F)c2)C(F)(F)F)cc(N2CCC3(CC2)CN[C@H](C(=O)O)C3)n1` [Example 34ap, (S)-8-(2-amino-6-((R)-1-(3′,5-dichloro-5′-(trifluoromethyl)-[1,1′-biphenyl]-2-yl)-2,2,2-trifluoroethoxy)pyrimidin-4-yl)-2,8-diazaspiro[4.5]decane-3-carboxylic acid]: the IC50 under setting [2] was 50 to 300 nM.
On the same count and under the same terms, for `Nc1nc(O[C@H](c2ccc(Cl)cc2-c2cc(F)cc(C(F)(F)F)c2)C(F)(F)F)cc(N2CCC3(CC2)CN[C@H](C(=O)O)C3)n1` [Example 34aq, (S)-8-(2-amino-6-((R)-1-(5-chloro-3′-fluoro-5′-(trifluoromethyl)-[1,1′-biphenyl]-2-yl)-2,2,2-trifluoroethoxy)pyrimidin-4-yl)-2,8-diazaspiro[4.5]decane-3-carboxylic acid] the value was below 50 nM.
Take `Nc1nc(O[C@H](c2ccc(Cl)cc2-c2cccc(F)c2)C(F)(F)F)cc(N2CCC3(CC2)CN[C@H](C(=O)O)C3)n1` [Example 34as, (S)-8-(2-amino-6-((R)-1-(5-chloro-3′-fluoro-[1,1′-biphenyl]-2-yl)-2,2,2-trifluoroethoxy)pyrimidin-4-yl)-2,8-diazaspiro[4.5]decane-3-carboxylic acid]: under setting [1], the IC50 was below 50 nM.
Turning to `Cc1cc(-c2cc(Cl)ccc2[C@@H](Oc2cc(N3CCC4(CC3)CN[C@H](C(=O)O)C4)nc(N)n2)C(F)(F)F)ccc1Cl` [Example 34at, (S)-8-(2-amino-6-((R)-1-(4′,5-dichloro-3′-methyl-[1,1′-biphenyl]-2-yl)-2,2,2-trifluoroethoxy)pyrimidin-4-yl)-2,8-diazaspiro[4.5]decane-3-carboxylic acid], under setting [1], the IC50 was in the range of 50 to 300 nM.
On the same count and under the same terms, for `Nc1nc(O[C@H](c2ccc(Cl)cc2-c2cc(F)cc(F)c2)C(F)(F)F)cc(N2CCC3(CC2)CN[C@H](C(=O)O)C3)n1` [Example 34au, (S)-8-(2-amino-6-((R)-1-(5-chloro-3′,5′-difluoro-[1,1′-biphenyl]-2-yl)-2,2,2-trifluoroethoxy)pyrimidin-4-yl)-2,8-diazaspiro[4.5]decane-3-carboxylic acid] the value was below 50 nM.
As for `Nc1nc(O[C@H](c2ccc(Cl)cc2-c2ccc(F)c(Cl)c2)C(F)(F)F)cc(N2CCC3(CC2)CN[C@H](C(=O)O)C3)n1` [Example 34av, (S)-8-(2-amino-6-((R)-1-(3′,5-dichloro-4′-fluoro-[1,1′-biphenyl]-2-yl)-2,2,2-trifluoroethoxy)pyrimidin-4-yl)-2,8-diazaspiro[4.5]decane-3-carboxylic acid], the half-maximal inhibitory concentration (IC50) under setting [2] was below 50 nM.
In the case of `Nc1nc(O[C@H](c2ccc(Cl)cc2-c2ccc(F)c(F)c2)C(F)(F)F)cc(N2CCC3(CC2)CN[C@H](C(=O)O)C3)n1` [Example 34aw, (S)-8-(2-amino-6-((R)-1-(5-chloro-3′,4′-difluoro-[1,1′-biphenyl]-2-yl)-2,2,2-trifluoroethoxy)pyrimidin-4-yl)-2,8-diazaspiro[4.5]decane-3-carboxylic acid], the half-inhibitory concentration (IC50) under setting [1] is below 50 nM.
In the case of `Nc1nc(O[C@H](c2ccc(Cl)cc2-c2ccc(C(F)(F)F)c(Cl)c2)C(F)(F)F)cc(N2CCC3(CC2)CN[C@H](C(=O)O)C3)n1` [Example 34ax, (S)-8-(2-amino-6-((R)-1-(3′,5-dichloro-4′-(trifluoromethyl)-[1,1′-biphenyl]-2-yl)-2,2,2-trifluoroethoxy)pyrimidin-4-yl)-2,8-diazaspiro[4.5]decane-3-carboxylic acid], under setting [2], the concentration for half-maximal inhibition (IC50) was in the range of 50 to 300 nM.
Same read-out and setting: in the case of `Cc1ccc(-c2cc(Cl)ccc2[C@@H](Oc2cc(N3CCC4(CC3)CN[C@H](C(=O)O)C4)nc(N)n2)C(F)(F)F)cc1C` [Example 34ay, (S)-8-(2-amino-6-((R)-1-(5-chloro-3′,4′-dimethyl-[1,1′-biphenyl]-2-yl)-2,2,2-trifluoroethoxy)pyrimidin-4-yl)-2,8-diazaspiro[4.5]decane-3-carboxylic acid] it was 50 to 300 nM.
